Assay results as given in patent publication US8795984B2, “Production of glycoproteins with reduced O-glycosylation” (Merck Sharp & Dohme Corp., priority 2005, dated 2014).

Tests used:
[1] = test system: O-glycosylation of secreted recombinant reporter proteins; experiment: Western blot of His-tagged Kringle 1-3 protein in growth media (FIG. 1); assay type: cell-based, Pichia pastoris; conditions: yJC53 treated with 2 or 20 μM, compared with pmt1Δ strain yJC55
Protocol: Kringle 1-3 protein expression for the transformed yeast strains was carried out at in shake flasks at 24° C. with buffered glycerol-complex medium (BMGY) consisting of 1% yeast extract, 2% peptone, 100 mM potassium phosphate buffer pH 6.0, 1.34% yeast nitrogen base, 4×10-5% biotin, and 1% glycerol. The induction medium for protein expression was buffered methanol-complex medium (BMMY) consisting of 1% methanol instead of glycerol in BMGY. Pmt inhibitor Pmti-1, Pmti-2, or Pmti-3 in methanol was added to the growth medium to a final concentration of 0.2 μM, 2 μM, or 20 μM at the time the induction medium was added. Cells were harvested and centrifuged at 2,000 rpm for five minutes. The Pmt inhibitors Pmti-1, Pmti-2, and Pmti-3 are essentially interchangeable, with small variations in ease of use. […]

[2] = Solubility in the cell culture conditions; assay type: physicochemical; conditions: in the cell culture conditions described (BMGY/BMMY)
Protocol: Kringle 1-3 protein expression for the transformed yeast strains was carried out at in shake flasks at 24° C. with buffered glycerol-complex medium (BMGY) consisting of 1% yeast extract, 2% peptone, 100 mM potassium phosphate buffer pH 6.0, 1.34% yeast nitrogen base, 4×10-5% biotin, and 1% glycerol. The induction medium for protein expression was buffered methanol-complex medium (BMMY) consisting of 1% methanol instead of glycerol in BMGY. Pmt inhibitor Pmti-1, Pmti-2, or Pmti-3 in methanol was added to the growth medium to a final concentration of 0.2 μM, 2 μM, or 20 μM at the time the induction medium was added. Cells were harvested and centrifuged at 2,000 rpm for five minutes. The Pmt inhibitors Pmti-1, Pmti-2, and Pmti-3 are essentially interchangeable, with small variations in ease of use.

solubility [2]	Structure (SMILES)	O-glycosylation of Kringle 1-3 protein on Western blot [1]
	O=C(O)CN1C(=O)C(=Cc2ccc(OCc3ccccc3)c(OCc3ccccc3)c2)SC1=S [Pmti-1, 5-[[3,4-bis(phenylmethoxy)phenyl]methylene]-4-oxo-2-thioxo-3-thiazolidineacetic Acid]	reduced O-glycosylation to a level similar to that observed in a strain lacking Pmt1
greater than that of Pmti-1 and Pmti-2	O=C(O)CN1C(=O)/C(=C/c2ccc(OCCc3ccccc3)c(OC(CO)c3ccccc3)c2)SC1=S (centres unmarked) [Pmti-3]	
